# Tests used:
# [1] = target: 5-HT2Cedited (accession number AAF35842.1) (Homo sapiens, UniProt P28335, I156V/I160V/N158S); assay: biochemical; assay type: binding
# [2] = target: human recombinant 5-HT2Cedited receptor (Homo sapiens, UniProt P28335, I156V/I160V/N158S); assay: cell-based
# human recombinant 5-HT2Cedited receptor, sequence (P28335 33-458 I156V/N158S/I160V limits assumed): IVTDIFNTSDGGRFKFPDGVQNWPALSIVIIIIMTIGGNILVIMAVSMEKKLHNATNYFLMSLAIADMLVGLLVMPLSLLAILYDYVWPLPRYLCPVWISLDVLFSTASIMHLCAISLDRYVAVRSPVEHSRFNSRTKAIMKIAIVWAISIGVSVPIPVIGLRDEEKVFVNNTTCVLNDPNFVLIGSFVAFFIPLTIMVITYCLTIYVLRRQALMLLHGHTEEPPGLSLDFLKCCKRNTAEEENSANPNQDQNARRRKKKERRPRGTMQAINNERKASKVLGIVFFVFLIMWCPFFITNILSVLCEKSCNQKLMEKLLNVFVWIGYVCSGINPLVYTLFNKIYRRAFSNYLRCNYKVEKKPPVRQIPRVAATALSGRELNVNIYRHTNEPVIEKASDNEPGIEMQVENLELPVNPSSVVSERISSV
# 5-HT2Cedited (accession number AAF35842.1), sequence (P28335 whole entry I156V/N158S/I160V, looked up): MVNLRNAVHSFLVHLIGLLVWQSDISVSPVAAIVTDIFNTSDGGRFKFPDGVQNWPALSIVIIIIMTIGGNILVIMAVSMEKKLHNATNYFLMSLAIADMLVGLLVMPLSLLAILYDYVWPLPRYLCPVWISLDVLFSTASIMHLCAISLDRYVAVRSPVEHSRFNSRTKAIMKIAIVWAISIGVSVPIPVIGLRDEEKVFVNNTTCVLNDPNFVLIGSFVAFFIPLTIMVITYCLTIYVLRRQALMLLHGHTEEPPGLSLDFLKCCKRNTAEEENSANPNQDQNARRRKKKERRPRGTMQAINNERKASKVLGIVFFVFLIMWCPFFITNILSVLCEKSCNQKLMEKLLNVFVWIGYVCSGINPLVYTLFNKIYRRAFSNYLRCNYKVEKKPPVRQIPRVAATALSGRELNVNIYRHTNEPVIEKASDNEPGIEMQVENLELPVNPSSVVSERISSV
structure (smiles),measurement,setting,value
"COc1ccc2c3c([nH]c2c1)C[C@H]1CCCN1CC3 [Compound 18, (R)-9-methoxy-1,2,3,5,6,11,12,12a-octahydropyrrolo[1′,2′:1,2]azepino[4,5-b]indole]",IC50,[1],1000 to 10000 nM
same,EC50,[2],> 10000 nM
"COc1ccc2c3c([nH]c2c1)CCN1CCC[C@H]1C3 [Compound 25, (S)-9-methoxy-1,2,3,5,6,7,12,12a-octahydropyrrolo[1′,2′:1,7]azepino[4,5-b]indole]",IC50,[1],1000 to 10000 nM
same,EC50,[2],1000 to 10000 nM
"FC(F)(F)c1ccc2c3c([nH]c2c1)CC1CCCN1CC3 (stereo not drawn) [Compound 12, 9-(trifluoromethyl)-1,2,3,5,6,11,12,12a-octahydropyrrolo[1′,2′:1,2]azepino[4,5-b]indole]",IC50,[1],1000 to 10000 nM
same,EC50,[2],> 10000 nM
"Cn1c2c(c3ccccc31)CC1CCCN1CC2 (stereo not drawn) [Compound 6, 7-methyl-1,2,3,5,6,7,12,12a-octahydropyrrolo[1′,2′:1,7]azepino[4,5-b]indole]",IC50,[1],101 to 1000 nM
same,EC50,[2],101 to 1000 nM
"c1ccc2c3c([nH]c2c1)C[C@H]1CCCN1CC3 [Compound 20, (R)-1,2,3,5,6,11,12,12a-octahydropyrrolo[1′,2′:1,2]azepino[4,5-b]indole]",IC50,[1],101 to 1000 nM
same,EC50,[2],10 to 100 nM
"FC(F)(F)c1cccc2[nH]c3c(c12)CC1CCCN1CC3 (stereo not drawn) [Compound 28, 11-(trifluoromethyl)-1,2,3,5,6,7,12,12a-octahydropyrrolo[1′,2′:1,7]azepino[4,5-b]indole]",IC50,[1],10 to 100 nM
same,EC50,[2],101 to 1000 nM
"c1ccc2c3c([nH]c2c1)CCN1CCC[C@H]1C3 [Compound 23, (S)-1,2,3,5,6,7,12,12a-octahydropyrrolo[1′,2′:1,7]azepino[4,5-b]indole]",IC50,[1],101 to 1000 nM
same,EC50,[2],101 to 1000 nM
"c1ccc2c3c([nH]c2c1)CCN1CCCC1C3 (stereo not drawn) [Compound 7, 1,2,3,5,6,7,12,12a-octahydropyrrolo[1′,2′:1,7]azepino[4,5-b]indole]",IC50,[1],101 to 1000 nM
same,EC50,[2],101 to 1000 nM
"FC(F)(F)c1cccc2[nH]c3c(c12)CCN1CCCC1C3 (stereo not drawn) [Compound 21, 7-(trifluoromethyl)-1,2,3,5,6,11,12,12a-octahydropyrrolo[1′,2′:1,2]azepino[4,5-b]indole]",IC50,[1],101 to 1000 nM
same,EC50,[2],101 to 1000 nM
"FC(F)(F)Oc1ccc2c3c([nH]c2c1)CC1CCCN1CC3 (stereo not drawn) [Compound 13, 9-(trifluoromethoxy)-1,2,3,5,6,11,12,12a-octahydropyrrolo[1′,2′;1,2]azepino[4,5-b]indole]",IC50,[1],1000 to 10000 nM
same,EC50,[2],> 10000 nM
"c1ccc2c3c([nH]c2c1)CCN1CCC[C@@H]1C3 [Compound 22, (R)-1,2,3,5,6,7,12,12a-octahydropyrrolo[1′,2′:1,7]azepino[4,5-b]indole]",IC50,[1],101 to 1000 nM
same,EC50,[2],101 to 1000 nM
"Cn1c2c(c3ccccc31)CCN1CCCC1C2 (stereo not drawn) [Compound 3, 11-methyl-1,2,3,5,6,11,12,12a-octahydropyrrolo[1′,2′:1,2]azepino[4,5-b]indole]",IC50,[1],101 to 1000 nM
same,EC50,[2],101 to 1000 nM
"COc1cccc2[nH]c3c(c12)C[C@H]1CCCN1CC3 [Compound 26, (R)-11-methoxy-1,2,3,5,6,7,12,12a-octahydropyrrolo[1′,2′:1,7]azepino[4,5-b]indole]",IC50,[1],10 to 100 nM
same,EC50,[2],10 to 100 nM
"COc1ccc2c3c([nH]c2c1)CC1CCCN1CC3 (stereo not drawn) [Compound 2, 9-methoxy-1,2,3,5,6,11,12,12a-octahydropyrrolo[1′,2′:1,2]azepino[4,5-b]indole]",IC50,[1],1000 to 10000 nM
same,EC50,[2],1000 to 10000 nM
"c1ccc2c3c([nH]c2c1)CC1CCCN1CC3 (stereo not drawn) [Compound 4, 1,2,3,5,6,11,12,12a-octahydropyrrolo[1′,2′;1,2]azepino[4,5-b]indole]",IC50,[1],101 to 1000 nM
same,EC50,[2],101 to 1000 nM
"COc1cccc2[nH]c3c(c12)C[C@@H]1CCCN1CC3 [Compound 27, (S)-11-methoxy-1,2,3,5,6,7,12,12a-octahydropyrrolo[1′,2′:1,7]azepino[4,5-b]indole]",IC50,[1],101 to 1000 nM
same,EC50,[2],101 to 1000 nM
"COc1ccc2c3c([nH]c2c1)C[C@@H]1CCCN1CC3 [Compound 17, (S)-9-methoxy-1,2,3,5,6,11,12,12a-octahydropyrrolo[1′,2′:1,2]azepino[4,5-b]indole]",IC50,[1],1000 to 10000 nM
same,EC50,[2],> 10000 nM
"c1ccc2c3c([nH]c2c1)C[C@@H]1CCCN1CC3 [Compound 19, (S)-1,2,3,5,6,11,12,12a-octahydropyrrolo[1′,2′:1,2]azepino[4,5-b]indole]",IC50,[1],101 to 1000 nM
same,EC50,[2],101 to 1000 nM
"COc1cccc2[nH]c3c(c12)CC1CCCN1CC3 (stereo not drawn) [Compound 5, 11-methoxy-1,2,3,5,6,7,12,12a-octahydropyrrolo[1′,2′:1,7]azepino[4,5-b]indole]",IC50,[1],101 to 1000 nM
same,EC50,[2],1000 to 10000 nM
"COc1ccc2c3c([nH]c2c1)CCN1CCC[C@@H]1C3 [Compound 24, (R)-9-methoxy-1,2,3,5,6,7,12,12a-octahydropyrrolo[1′,2′:1,7]azepino[4,5-b]indole]",IC50,[1],1000 to 10000 nM
same,EC50,[2],1000 to 10000 nM
"COc1ccc2c3c([nH]c2c1)CCN1CCCC1C3 (stereo not drawn) [Compound 1, 9-methoxy-1,2,3,5,6,7,12,12a-octahydropyrrolo[1′,2′:1,7]azepino[4,5-b]indole]",IC50,[1],1000 to 10000 nM
same,EC50,[2],> 10000 nM

# From patent US20260176253A1 (priority 2021, published 2026)
